According to ChEMBL document CHEMBL4145521, “Regioselective synthesis of 3,4-diaryl-5-unsubstituted isoxazoles, analogues of natural cytostatic combretastatin A4” (Eur J Med Chem, 2018):

Columns and labels:
Format in all cases: functional
HOP-92 = experiment: Cytotoxicity against human HOP92 cells assessed as cell growth at 0.01 uM incubated for 48 hrs by sulforhodamine B assay relative to control; details: HOP-92, 48 h, read-out: Activity
NCI-H460 = experiment: Cytotoxicity against human NCI-H460 cells assessed as cell growth at 0.01 uM incubated for 48 hrs by sulforhodamine B assay relative to control; details: NCI-H460, 48 h, read-out: Activity
HCT-15 = experiment: Cytotoxicity against human HCT15 cells assessed as cell growth at 0.01 uM incubated for 48 hrs by sulforhodamine B assay relative to control; details: HCT-15, 48 h, read-out: Activity
SK-MEL-28 = experiment: Cytotoxicity against human SK-MEL-28 cells assessed as cell growth at 0.01 uM incubated for 48 hrs by sulforhodamine B assay relative to control; details: SK-MEL-28, 48 h, read-out: Activity
OVCAR-3 [1] = experiment: Cytotoxicity against human OVCAR3 cells assessed as cell growth at 0.01 uM incubated for 48 hrs by sulforhodamine B assay relative to control; details: OVCAR-3, 48 h, read-out: Activity
TK-10 = experiment: Cytotoxicity against human TK10 cells assessed as cell growth at 0.01 uM incubated for 48 hrs by sulforhodamine B assay relative to control; details: TK-10, 48 h, read-out: Activity
PC-3 [2] = experiment: Cytotoxicity against human PC3 cells assessed as cell growth at 0.01 uM incubated for 48 hrs by sulforhodamine B assay relative to control; details: PC-3, 48 h, read-out: Activity
HOP-62 [3] = experiment: Cytotoxicity against human HOP62 cells assessed as cell growth at 0.1 uM incubated for 48 hrs by sulforhodamine B assay relative to control; details: HOP-62, 48 h, read-out: Activity
HCC 2998 = experiment: Cytotoxicity against human HCC2998 cells assessed as cell growth at 0.1 uM incubated for 48 hrs by sulforhodamine B assay relative to control; details: HCC 2998, 48 h, read-out: Activity
SK-MEL-2 = experiment: Cytotoxicity against human SK-MEL-2 cells assessed as cell growth at 0.1 uM incubated for 48 hrs by sulforhodamine B assay relative to control; details: SK-MEL-2, 48 h, read-out: Activity
SK-MEL-5 = experiment: Cytotoxicity against human SK-MEL-5 cells assessed as cell growth at 0.1 uM incubated for 48 hrs by sulforhodamine B assay relative to control; details: SK-MEL-5, 48 h, read-out: Activity
OVCAR-3 [4] = experiment: Cytotoxicity against human OVCAR3 cells assessed as cell growth at 0.1 uM incubated for 48 hrs by sulforhodamine B assay relative to control; details: OVCAR-3, 48 h, read-out: Activity
MCF7 [5] = experiment: Cytotoxicity against human MCF7 cells assessed as cell growth at 0.1 uM incubated for 48 hrs by sulforhodamine B assay relative to control; details: MCF7, 48 h, read-out: Activity
MDA-MB-231 = experiment: Cytotoxicity against human MDA-MB-231 cells assessed as cell growth at 0.1 uM incubated for 48 hrs by sulforhodamine B assay relative to control; details: MDA-MB-231, 48 h, read-out: Activity
Hs-578T = experiment: Cytotoxicity against human Hs 578T cells assessed as cell growth at 0.1 uM incubated for 48 hrs by sulforhodamine B assay relative to control; details: read-out: Activity
MCF7 [6] = experiment: Cytotoxicity against human MCF7 cells assessed as cell growth at 1 uM incubated for 48 hrs by sulforhodamine B assay relative to control; details: MCF7, 48 h, read-out: Activity
HOP-62 [7] = experiment: Cytotoxicity against human HOP62 cells assessed as cell growth at 10 uM incubated for 48 hrs by sulforhodamine B assay relative to control; details: HOP-62, 48 h, read-out: Activity
HCT-116 = experiment: Cytotoxicity against human HCT116 cells assessed as cell growth at 10 uM incubated for 48 hrs by sulforhodamine B assay relative to control; details: HCT-116, 48 h, read-out: Activity
KM12 [8] = experiment: Cytotoxicity against human KM12 cells assessed as cell growth at 10 uM incubated for 48 hrs by sulforhodamine B assay relative to control; details: KM12, 48 h, read-out: Activity
SF-295 = experiment: Cytotoxicity against human SF295 cells assessed as cell growth at 10 uM incubated for 48 hrs by sulforhodamine B assay relative to control; details: SF-295, 48 h, read-out: Activity
Malme-3M [9] = experiment: Cytotoxicity against human MALME-3M cells assessed as cell growth at 10 uM incubated for 48 hrs by sulforhodamine B assay relative to control; details: read-out: Activity
UACC-62 = experiment: Cytotoxicity against human UACC62 cells assessed as cell growth at 10 uM incubated for 48 hrs by sulforhodamine B assay relative to control; details: UACC-62, 48 h, read-out: Activity
MCF7 [10] = experiment: Cytotoxicity against human MCF7 cells assessed as cell growth at 10 uM incubated for 48 hrs by sulforhodamine B assay relative to control; details: MCF7, 48 h, read-out: Activity
SF-539 = experiment: Cytotoxicity against human SF539 cells assessed as cell growth at 100 uM incubated for 48 hrs by sulforhodamine B assay relative to control; details: SF-539, 48 h, read-out: Activity
KM12 [11] = experiment: Cytotoxicity against human KM12 cells incubated for 48 hrs by sulforhodamine B assay; details: KM12, 48 h
Malme-3M [12] = experiment: Cytotoxicity against human MALME-3M cells incubated for 48 hrs by sulforhodamine B assay
OVCAR-5 = experiment: Cytotoxicity against human OVCAR5 cells incubated for 48 hrs by sulforhodamine B assay; details: OVCAR-5, 48 h
786-0 = experiment: Cytotoxicity against human 786-0 cells incubated for 48 hrs by sulforhodamine B assay; details: 786-0, 48 h
PC-3 [13] = experiment: Cytotoxicity against human PC3 cells incubated for 48 hrs by sulforhodamine B assay; details: PC-3, 48 h
BT-549 = experiment: Cytotoxicity against human BT549 cells incubated for 48 hrs by sulforhodamine B assay; details: BT-549, 48 h
[14] = read-out: LC50 (the source's name)
[15] = read-out: pLC50 (the source's name) (converted)

COc1ccc(-c2nocc2-c2cc(OC)c(OC)c(OC)c2)cc1 showed a growth at 0.01 µM (HOP-92) of 98%, a growth at 0.01 µM (NCI-H460) of 105% and a growth at 0.01 µM (HCT-15) of 88%. For the same molecule, the growth at 0.01 µM (SK-MEL-28) was 94%, the growth at 0.01 µM (OVCAR-3 [1]) was 100% and the growth at 0.01 µM (TK-10) was 90%. For the same molecule, the growth at 0.01 µM (PC-3 [2]) was 99%, the growth at 0.1 µM (HOP-62 [3]) was 58% and the growth at 0.1 µM (HCC 2998) was 62%. For the same molecule, the growth at 0.1 µM (SK-MEL-2) was 39%, the growth at 0.1 µM (SK-MEL-5) was 41% and the growth at 0.1 µM (OVCAR-3 [4]) was 15%. For the same molecule, the growth at 0.1 µM (MCF7 [5]) was 27%, the growth at 0.1 µM (MDA-MB-231) was 72% and the growth at 0.1 µM (Hs-578T) was 77%. For the same molecule, the growth at 1 µM (MCF7 [6]) was 19%, the growth at 10 µM (HOP-62 [7]) was 35% and the growth at 10 µM (HCT-116) was 6%. For the same molecule, the growth at 10 µM (KM12 [8]) was 6%, the growth at 10 µM (SF-295) was 5% and the growth at 10 µM (Malme-3M [9]) was 60%. For the same molecule, the growth at 10 µM (UACC-62) was 5%, the growth at 10 µM (MCF7 [10]) was 14% and the growth at 100 µM (SF-539) was -15%. It also gave a GI50 (KM12 [11]; read-out: GI50) of 0.0433 µM, a CC50 (KM12 [11]; [14]) greater than 100 µM and a TGI (KM12 [11]; read-out: TGI) of 13.1 µM. For the same molecule, the GI50 (KM12 [11]; read-out: pGI50 (converted)) was 0.0437 µM, the CC50 (KM12 [11]; [15]) was greater than 100 µM and the TGI (KM12 [11]; read-out: pTGI (converted)) was 13.2 µM. It also gave an LC50 (concentration killing 50% of cells) (Malme-3M [12]; read-out: LC50) greater than 100 µM, a TGI (Malme-3M [12]; read-out: TGI) of 45.5 µM and an LC50 (concentration killing 50% of cells) (Malme-3M [12]; read-out: pLC50 (converted)) greater than 100 µM. It also gave a TGI (Malme-3M [12]; read-out: pTGI (converted)) of 45.7 µM, a GI50 (OVCAR-5; read-out: GI50) of 1.65 µM and an LC50 (OVCAR-5; read-out: LC50) greater than 100 µM. It also gave a TGI (OVCAR-5; read-out: TGI) greater than 100 µM, a GI50 (OVCAR-5; read-out: pGI50 (converted)) of 1.66 µM and an LC50 (OVCAR-5; read-out: pLC50 (converted)) greater than 100 µM. The TGI (OVCAR-5; read-out: pTGI) was greater than 100 µM, the GI50 (786-0; read-out: GI50) was 0.174 µM and the LC50 (786-0; read-out: LC50) was greater than 100 µM. For the same molecule, the TGI (786-0; read-out: TGI) was 38.6 µM, the GI50 (786-0; read-out: pGI50 (converted)) was 0.174 µM and the LC50 (786-0; read-out: pLC50 (converted)) was greater than 100 µM. It also gave a TGI (786-0; read-out: pTGI (converted)) of 38.9 µM, a GI50 (PC-3 [13]; read-out: GI50) of 0.0671 µM and an LC50 (concentration killing 50% of cells) (PC-3 [13]; read-out: LC50) greater than 100 µM. For the same molecule, the TGI (PC-3 [13]; read-out: TGI) was 42.5 µM, the GI50 (PC-3 [13]; read-out: pGI50 (converted)) was 0.0676 µM and the LC50 (concentration killing 50% of cells) (PC-3 [13]; read-out: pLC50 (converted)) was greater than 100 µM. The TGI (PC-3 [13]; read-out: pTGI (converted)) was 42.7 µM, the GI50 (BT-549; read-out: GI50) was 0.176 µM and the CC50 (BT-549; [14]) was greater than 100 µM. The TGI (BT-549; read-out: TGI) was 18.9 µM, the GI50 (BT-549; read-out: pGI50 (converted)) was 0.178 µM and the CC50 (BT-549; [15]) was greater than 100 µM. For the same molecule, the TGI (BT-549; read-out: pTGI (converted)) was 19.1 µM.
